Test systems include UACC-62; MDA-MB-231; SF-295; SN12C; EKVX; HT-29; IGROV-1; CAKI-1; Malme-3M; SK-MEL-2; NCI-H460; MOLT-4; SK-OV-3; HL-60; LOX IMVI; SF-539; SR; A498; HOP-92.
Experiment in all cases: inhibition of tumour cell growth, NCI panel, 48 h

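In this assay, cells in 96-well plates receive the compound at five concentrations for 48 hours. Endpoints are linearly interpolated between the surrounding concentrations. Abbreviation: GI50, concentration required for 50% inhibition of growth.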 Activity calls are given as the source filed them. No stated cut-off is given here; in the data, active = GI50 up to about 1.1 µM and inactive = higher.

Consider `COc1ccc(/C=N/NC(=O)c2cnc3[nH]c(=O)n(C)c(=O)c3c2)cc1`, for which the GI50 with UACC-62 was 80.2 µM (inactive); with MDA-MB-231, 27 µM (inactive); in the test with SF-295, 46.3 µM (inactive); in the test with SN12C, 88.3 µM (inactive); with EKVX, > 100 µM (inactive); in the test with HT-29 it was > 100 µM (inactive). For the same molecule, the GI50 with IGROV-1 was 34.9 µM (inactive); with CAKI-1 it was 94.8 µM (inactive); with Malme-3M, > 100 µM (inactive); in the test on SK-MEL-2 it was 44.3 µM (inactive); in the test on NCI-H460, > 100 µM (inactive); in the test with MOLT-4, > 100 µM (inactive). Further, the GI50 in the test on SK-OV-3 is 59.2 µM (inactive).
Regarding `C=C1CCC2(C(C)=O)COC1(C)O2` (stereo not drawn), the GI50 with HL-60, in the test on UACC-62, with SF-295, in the test on SN12C, with EKVX and in the test on HT-29 was > 100 µM (inactive) each time. In addition, the GI50 with LOX IMVI, in the test on IGROV-1, in the test with Malme-3M, in the test with NCI-H460, with MOLT-4 and with SK-OV-3 was > 100 µM (inactive) in each case. For the same molecule, the GI50 in the test on SF-539 was > 100 µM (inactive).
With `N#CC12C(=O)NC(=O)C1(C#N)C1C=CC2CC1` (stereo not drawn), the GI50 in the test with HL-60, with UACC-62, in the test on SR, in the test with SF-295, in the test on SN12C and in the test with EKVX was > 100 µM (inactive) throughout. Besides, the GI50 in the test on HT-29, in the test with LOX IMVI, in the test on CAKI-1, with Malme-3M, in the test on MOLT-4 and with SK-OV-3 was > 100 µM (inactive) throughout. Also, in the test with SF-539, the GI50 was > 100 µM (inactive).
As to `CC(C)(C)c1ccc2c(c1)C#Cc1cc(C(C)(C)C)ccc1OCCCO2`, the GI50 in the test on HL-60, in the test with UACC-62, in the test on MDA-MB-231, in the test with SF-295, in the test on SN12C and with EKVX was > 100 µM (inactive) in each case. Besides, the GI50 in the test on HT-29, in the test with A498, in the test on LOX IMVI, in the test on IGROV-1, in the test with CAKI-1 and in the test on Malme-3M was > 100 µM (inactive) throughout. Also, the GI50 with SK-MEL-2, in the test with NCI-H460 and with MOLT-4 was > 100 µM (inactive) throughout.
Take `CCOP12(OCC)NC(=O)OC1(C(F)(F)F)c1ccccc1O2` (stereo not drawn): the GI50 in the test with HL-60, with UACC-62, in the test on SF-295, in the test on SN12C, in the test on HT-29 and in the test on LOX IMVI was > 100 µM (inactive) in each case. Besides, the GI50 in the test with IGROV-1, in the test on Malme-3M, with SK-MEL-2, in the test on NCI-H460, with MOLT-4 and in the test on SK-OV-3 was > 100 µM (inactive) each time. In addition, the GI50 in the test with SF-539 is > 100 µM (inactive).
Turning to `CC[C@@]1(C[C@H]2C[C@@]3(C(=O)OC)c4[nH]c5ccccc5c4CCN3C2=S)COC2(CCCCC2)O1`, the GI50 with HL-60 is 4.06 µM (inactive); in the test with HOP-92, 2.62 µM (inactive); in the test on UACC-62 it was 11.3 µM (inactive); with SR, 4.44 µM (inactive); with SF-295, 22 µM (inactive); with SN12C, > 100 µM (inactive). Also, the GI50 in the test with EKVX is 58.9 µM (inactive); in the test with HT-29, 16.7 µM (inactive); with A498 it was 88.7 µM (inactive); in the test with LOX IMVI it was 78 µM (inactive); with IGROV-1, 61.7 µM (inactive); in the test with CAKI-1, > 100 µM (inactive). Further, the GI50 with Malme-3M was > 100 µM (inactive); with SK-MEL-2 it was > 100 µM (inactive); in the test on NCI-H460, 5.78 µM (inactive); in the test with MOLT-4, 6.15 µM (inactive); in the test with SK-OV-3 it was > 100 µM (inactive); in the test on SF-539 it was > 100 µM (inactive).
For the molecule `Cc1ccc(C)c(NC(=O)C(=O)C2C(=O)C3=C(CC2(C)C)Nc2ccccc2S3)c1` (stereo not drawn), the GI50 with HL-60 is > 100 µM (inactive); in the test on HOP-92, 52.1 µM (inactive); with UACC-62, > 100 µM (inactive); in the test on MDA-MB-231, 97.1 µM (inactive); in the test on SF-295 it was 58.9 µM (inactive); with SN12C, > 100 µM (inactive). Further, the GI50 was 73.5 µM (inactive) in the test on EKVX; > 100 µM (inactive) in the test on HT-29; > 100 µM (inactive) with LOX IMVI; 69.7 µM (inactive) in the test with IGROV-1; > 100 µM (inactive) in the test on CAKI-1; > 100 µM (inactive) in the test with SK-MEL-2. Besides, the GI50 in the test with NCI-H460 is > 100 µM (inactive); in the test with MOLT-4, 23.9 µM (inactive); in the test with SK-OV-3, 60.4 µM (inactive); in the test on SF-539 it was 56.9 µM (inactive).
As to `CCOC(=O)Cc1csc(N/C=C2/C(=O)Oc3ccccc3C2=O)n1`, the GI50 with HL-60 is 0.083 µM (active); with HOP-92 it was 11.7 µM (inactive); in the test on UACC-62 it was 13.5 µM (inactive); in the test on SR it was 14.3 µM (inactive); in the test on SF-295, 20.9 µM (inactive); in the test with EKVX it was 35.8 µM (inactive). The GI50 with HT-29 was 39.1 µM (inactive); in the test with LOX IMVI, 25.6 µM (inactive); in the test with IGROV-1, 19.1 µM (inactive); with CAKI-1, 26.2 µM (inactive); in the test on Malme-3M, 1.79 µM (inactive); in the test on SK-MEL-2, 13.6 µM (inactive). Also, the GI50 with NCI-H460 is 45.4 µM (inactive); in the test on MOLT-4, 10.2 µM (inactive); with SK-OV-3 it was 35.4 µM (inactive); in the test with SF-539, 16.9 µM (inactive).
On to `COC[C@@H](C[C@H]1O[C@@](O)([C@H](O)[C@@H]2C[C@H](OC)[C@@H](O)CC/C=C(C)/C=C/[C@@H](O[C@@H]3O[C@@H](C)[C@H](OC)[C@@H](O)[C@@H]3O)[C@H](C)/C=C(C)/C=C(C)/C=C(\C)C(=O)O2)[C@H](C)[C@@H](O)[C@H]1C)O[C@H]1C[C@](C)(O)[C@@H](O[C@H]2C[C@@H](OC)[C@H](O)[C@@H](C)O2)C(C)O1` (stereo partly drawn), for which the GI50 in the test with HL-60 was 0.869 µM (active); in the test with HOP-92, > 90.2 µM (inactive); with UACC-62, > 100 µM (inactive); in the test on MDA-MB-231 it was > 100 µM (inactive); in the test on SF-295, 0.857 µM (active); in the test on SN12C, > 100 µM (inactive). Moreover, the GI50 was 0.119 µM (active) in the test with EKVX; > 100 µM (inactive) in the test on HT-29; 46.5 µM (inactive) in the test with LOX IMVI; > 100 µM (inactive) in the test with IGROV-1; > 100 µM (inactive) in the test on CAKI-1; > 55 µM (inactive) in the test on SK-MEL-2. The GI50 in the test with NCI-H460 was > 61 µM (inactive); in the test with MOLT-4 it was 2.44 µM (inactive); in the test on SK-OV-3, > 100 µM (inactive); in the test with SF-539 it was > 100 µM (inactive).

These data come from ChEMBL document CHEMBL1201862, “PubChem BioAssay data set” (2004).
